In patent US20230414552A1, “NOVEL METHODS” (Colgate-Palmolive Company, priority 2020, published 2023):

Assays:
Type in all cases: cell-based
PDLSCs [1] = assay: BrdU analysis of PDLSC proliferation; details: ERK activator treatment of PDLSCs
Excerpt: (§1) To examine whether ERK activator can elevate PDLSC function through Wnt signaling, five different ERK activators are used to treat PDLSCs, and BMSCs (“Bone marrow-derived mesenchymal stem/stromal cells”) serve as the control in this experiment.

BMSCs = assay: BrdU analysis of BMSC proliferation (control cells); details: BMSCs as control cells
Excerpt: as §1

Wnt/β-catenin = assay: Western blot of ERK downstream signaling in PDLSCs; details: PDLSCs after treatment
Excerpt: Subsequently, ERK downstream signaling pathways involve screening using a Western blot technique. This includes screening for Shp2 signaling, Notch signaling, and Wnt signaling.

PDLSCs [2] = assay: Alizarin red staining of PDLSC osteogenesis under osteogenic induction; details: for Mineralized Area (% Total Area): control 47% ± 3.61
Experimental: To examine the effect of natural compounds PEITC and resveratrol in PDLSC osteogenesis, cells are treated with 1 uM PEITC or 5 uM resveratrol under osteogenic induction. […] The stained positive areas are then quantifiable using NIH ImageJ software and shown as a percentage of the total area. To examine the effect of natural compounds yellow and white curcumin extracts in GMSC and PDLSC osteogenesis, cells are treated with 5 μM yellow and white curcumin extracts under osteogenic induction. Alizarin red staining show yellow curcumin extract, but not white curcumin extract treatment elevated osteogenic differentiation, as indicated by increased mineralized nodule formation. The stained positive areas were quantified using NIH ImageJ software and shown as a percentage of the total area.

PDLSCs [3] = assay: Western blot of osteogenic genes Runx2 and ALP in PDLSCs; details: PDLSC, 1 uM PEITC or 5 uM resveratrol, osteogenic induction
Experimental: The expression of the osteogenic genes runt-related transcription factor 2 (Runx2) and alkaline phosphatase (ALP) are also elevated in PEITC or resveratrol treated groups, assessable by Western blot. […] To examine the effect of natural compounds yellow and white curcumin extracts in GMSC and PDLSC osteogenesis, cells are treated with 5 μM yellow and white curcumin extracts under osteogenic induction. Alizarin red staining show yellow curcumin extract, but not white curcumin extract treatment elevated osteogenic differentiation, as indicated by increased mineralized nodule formation. The stained positive areas were quantified using NIH ImageJ software and shown as a percentage of the total area.

CD3+ T cells = assay: PDLSC/T cell co-culture, flow cytometric analysis of apoptotic T cells; details: flow cytometry
Experimental: PEITC and resveratrol are tested to determine whether they contribute to PDLSC immunomodulation. A PDLSC/T cell co-culture experiment examines the immunomodulatory properties of PDLSCs with different compounds treatment.

PDLSCs [4] = assay: Toluidine blue staining of surviving PDLSCs after co-culture with activated T cells
Excerpt: After co-culture, toluidine blue staining allows for observation of the surviving PDLSCs that remain on the culture plates as positive staining. […] Natural ERK activators, PEITC and resveratrol, protect PDLSCs survival.

GMSC = assay: BrdU incorporation assay of GMSC proliferation; details: for Brdu + BMSC/Total Cells (%): control 28.1% ± 0.75

Row | Structure (SMILES) | PDLSC proliferation rate (BrdU analysis) (PDLSCs [1]) | effect on proliferation rate in BMSCs (BrdU analysis) (BMSCs) | Wnt/β-catenin activation (Western blot) (Wnt/β-catenin) | osteogenic differentiation, mineralized nodule formation (Alizarin red staining) (PDLSCs [2]; 5 uM resveratrol) | Mineralized Area (% Total Area) (PDLSCs [2]; 5 μM) | expression of Runx2 (Western blot) (PDLSCs [3]) | expression of alkaline phosphatase (ALP) (Western blot) (PDLSCs [3]) | PDLSC immunomodulation (AnnexinV+7AAD+ double positive apoptotic CD3+ T cells) (CD3+ T cells) | PDLSC survival from activated T cell attack (toluidine blue staining) (PDLSCs [4]) | GMSC cell proliferation (BrdU incorporation assay) (GMSC; 5 uM) | Brdu + BMSC/Total Cells (%) (GMSC; 5 μM) | osteogenic differentiation, mineralized nodule formation (Alizarin red staining) (PDLSCs [2]; 1 uM PEITC) | Mineralized Area (% Total Area) (PDLSCs [2]; 1 μM) | GMSC cell proliferation (BrdU incorporation assay) (GMSC; 1 uM) | Brdu + BMSC/Total Cells (%) (GMSC; 1 μM)
1 | CC(C)(C)c1cc(O)ccc1O [t-Butylhydroquinone, reference compound] | significantly increases | not observable | highly activated |  |  |  |  |  |  |  |  |  |  |  | 
2 | Oc1ccc(/C=C/c2cc(O)cc(O)c2)cc1 [resveratrol, 3,5,4′-trihydroxy-trans-stilbene] | significantly increases | not observable | highly activated | elevate | 59% ± 2.00 | elevated | elevated | significantly promotes | protect | significantly elevated | 47.6% ± 3.17 |  |  |  | 
3 | S=C=NCCc1ccccc1 [PEITC, Phenethyl Isothiocyanate] | significantly increases | not observable | highly activated |  |  | elevated | elevated | significantly promotes | protect |  |  | elevate | 65% ± 3.46 | significantly elevated | 48.6% ± 4.79
